In PMC4266903, “Hydroxylation index of omeprazole in relation to CYP2C19 polymorphism and sex in a healthy Iranian population” (DARU Journal of Pharmaceutical Sciences, 2014):
Like-named read-outs stand apart in the source and are kept apart here. One block for each compound: values may come before it.

Columns and labels:
[1] = Plasma concentration of omeprazole and hydroxyomeprazole by HPLC 3 hours after a single oral 20 mg omeprazole dose; type: in vivo, human; settings: for Mean OH-OMP concentration ± SD / concentration at 3 h: plasma, 3 h after single oral 20 mg omeprazole; for concentration at 3 h: human, po, 20 mg, read-out: Mean OMP concentration ± SD
Description: (§1) The study protocol was approved by ethics committee of Tehran University of Medical Sciences (ethical no. 11208). Generally one hundred and eighty (60 women and 120 men) unrelated healthy Iranian volunteers with the mean age of between 20–55 years and average body weight of 45–89 kg took part in this study. All participants signed written informed consent of this project. The study was completed by contribution of faculties of pharmacy of Tehran, Yazd, Kermanshah and Kerman University of Medical Sciences. The participants were students or stuffs of pharmacy schools, with no history of any illness or medicine consumption. No smoking and consumption of medicine that would affect CYP2C19 activity was permitted for one week before and during the study.
(§2) After an overnight fast for at least 8 hours, volunteers took 20 mg omeprazole capsule (Abidi pharmaceuticals) with 250 milliliter tap water. Ten ml venous blood sample was collected from each subject 3 hours after administration of omeprazole and transferred into tubes containing 10 μl of 10% EDTA. Five ml of blood samples were centrifuged for 5 min at 4000 rpm and the plasma was separated and transferred to Eppendorf tube and stored at −80°C up to the day of analysis. The other 5 ml blood samples were stored directly in −80°C for genotyping analysis.
(§3) Omeprazole powder was purchased from TMAD (Iran). 5-hydroxyomeprazole was a kind donation by AstraZeneca (Sweden). The concentration of omeprazole and 5-hydroxyomeprazole was analyzed by HPLC method as described by Rezk et al. with a few modifications. Briefly 500 μl plasma was extracted by liquid-liquid extraction using 1500 μl ethyl acetate. After orbital mixing for 10 min and centrifuging at 4000 × g for 10 min, the upper organic layer was separated and transferred to glass tube and then evaporated to dryness under gentle stream of air. Finally the residue was dissolved in 250 μl mobile phase and 100 μl of this sample was injected to HPLC system. The mobile phase was a combination of dibasic sodium phosphate buffer (0.025 mol/lit, pH 6): acetonitrile: methanol (73: 18: 8 V/V/V). The HPLC apparatus consisted of a low pressure HPLC pump, UV detector (λ = 302 nm) all from Knauer (Berlin, Germany). The chromatographic separation was performed by using Chromolit™ Performance RP-18e 100 mm × 4.6 mm, 5 μm particle size. Flow rate was adjusted to 1 ml/min.

[2] = design: method as in PMID 20804307; settings: Iranian patients with erosive reflux esophagitis, cited from earlier work
CYP2C19 [3] = settings: cited from earlier work
CYP2C19 [4] = assay: Omeprazole hydroxylation index (omeprazole/hydroxyomeprazole in plasma) as measure of CYP2C19 activity; type: in vivo, human; design: key to Median hydroxylation index / Median hydroxylation index (HI) / Mean HI ± SD: ratio: plasma omeprazole / 5-hydroxyomeprazole concentration at 3 h; settings: for Mean HI ± SD: 3 h after single oral 20 mg omeprazole; for Median hydroxylation index: all genotypes
Description: as §1, §2, §3
(§4) The allele frequencies differences between population were estimated using two-tailed Fisher’s exact test. The 95% confidence intervals (CI) were calculated using Confidence Interval Analysis software. The relation of sex and genotype was assessed by two tailed Fisher’s exact test. The observed and expected frequencies were calculated by using Hardy-Weinberg equation. The two-tailed Fisher’s exact test was used to evaluate deviation of genotype frequencies in the studied population from Hardy-Weinberg equilibrium. The enzyme activity was compared by using omeprazole hydroxylation index. The hydroxylation index (HI) of omeprazole 3 hours after administration of omeprazole was calculated by dividing omeprazole to 5-hydroxyomeprazol plasma concentration. The mean HI in different genotypes were compared by Mann–Whitney two tailed test. The impact of sex on HI of omeprazole was also evaluated using Mann–Whitney two tailed test. The inter-individual variability in metabolism of omeprazole was represented by probit plot. For drawing probit plot, the log of HI was calculated, the antimode value was determined using Microsoft office excel 2010. The normality of HI distribution was analyzed by frequency distribution histogram and also by Kolmogorov- Smirnov test. All statistical analyses were performed by Sigma Plot version 12.0 and Graph Pad Prism version 5 softwares and P < 0.05 was considered as statistically significant difference.

CYP2C19 [5] = target: T1, CYP2C19 (Homo sapiens, UniProt P33261); assay: as above; type: in vivo; design: key to Median hydroxylation index / Median hydroxylation index (HI) / Mean HI ± SD: ratio: plasma omeprazole / 5-hydroxyomeprazole concentration at 3 h
T1 construct: volunteers took 20 mg omeprazole capsule (Abidi pharmaceuticals) with 250 milliliter tap water; from tissue; host or cells: in vivo, endogenous enzyme of healthy human volunteers; metabolites measured in plasma
T1 sequence (P33261 whole entry): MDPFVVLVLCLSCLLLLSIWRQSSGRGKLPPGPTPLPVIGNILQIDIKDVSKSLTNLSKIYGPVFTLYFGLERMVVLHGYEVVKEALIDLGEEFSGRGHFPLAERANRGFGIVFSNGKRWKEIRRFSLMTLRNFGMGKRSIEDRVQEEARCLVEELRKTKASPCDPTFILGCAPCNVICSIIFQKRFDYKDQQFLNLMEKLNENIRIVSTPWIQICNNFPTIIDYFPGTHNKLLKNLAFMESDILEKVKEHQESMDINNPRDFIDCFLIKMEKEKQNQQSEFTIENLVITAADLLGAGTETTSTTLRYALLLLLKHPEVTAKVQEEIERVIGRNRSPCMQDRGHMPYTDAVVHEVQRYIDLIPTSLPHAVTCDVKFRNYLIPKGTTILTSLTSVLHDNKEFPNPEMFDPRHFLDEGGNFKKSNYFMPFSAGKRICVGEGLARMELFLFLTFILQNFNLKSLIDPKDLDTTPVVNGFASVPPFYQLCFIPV
Description: as §1, §2, §3, §4

Hydroxyomeprazole plasma concentration, women compared with men ([1]; 60 women vs 120 men, P > 0.05): not statistically different
Mean OH-OMP concentration ± SD ([1]; genotype 1*1, Men (53)): 151.01 ± 26.38 ng/mL
Mean OH-OMP concentration ± SD ([1]; genotype 1*1, Total (75)): 163.74 ± 32.25 ng/mL
Mean OH-OMP concentration ± SD ([1]; genotype 1*1, Women (22)): 194.40 ± 60.84 ng/mL
Mean OH-OMP concentration ± SD ([1]; genotype 1*2, Men (20)): 165.53 ± 23.55 ng/mL
Mean OH-OMP concentration ± SD ([1]; genotype 1*2, Total (33)): 177.79 ± 38.39 ng/mL
Mean OH-OMP concentration ± SD ([1]; genotype 1*2, Women (13)): 194.66 ± 52.56 ng/mL
Mean OH-OMP concentration ± SD ([1]; genotype 1*17, Men (37)): 178.07 ± 44.57 ng/mL
Mean OH-OMP concentration ± SD ([1]; genotype 1*17, Total (52)): 177.05 ± 37.53 ng/mL
Mean OH-OMP concentration ± SD ([1]; genotype 1*17, Women (15)): 174.51 ± 28.01 ng/mL
Mean OH-OMP concentration ± SD ([1]; genotype 2*2, Men (1)): 103.58 ng/mL
Mean OH-OMP concentration ± SD ([1]; genotype 2*2, Total (4)): 104.67 ± 10.55 ng/mL
Mean OH-OMP concentration ± SD ([1]; genotype 2*2, Women (3)): 105.03 ± 13.80 ng/mL
Mean OH-OMP concentration ± SD ([1]; genotype 2*17, Men (2)): 169.82 ± 84.95 ng/mL
Mean OH-OMP concentration ± SD ([1]; genotype 2*17, Total (6)): 172.79 ± 63.58 ng/mL
Mean OH-OMP concentration ± SD ([1]; genotype 2*17, Women (4)): 178.72 ± 33.59 ng/mL
Mean OH-OMP concentration ± SD ([1]; genotype 17*17, Men (5)): 201.69 ± 32.08 ng/mL
Mean OH-OMP concentration ± SD ([1]; genotype 17*17, Total (10)): 203.31 ± 34.93 ng/mL
Mean OH-OMP concentration ± SD ([1]; genotype 17*17, Women (5)): 204.92 ± 41.35 ng/mL
SMILES: COc1ccc2nc([S+]([O-])Cc3ncc(CO)c(OC)c3C)[nH]c2c1 (stereo not shown) [hydroxyomeprazole, 5-hydroxyomeprazole]

Omeprazole HI, women compared with men (CYP2C19 [4]; 60 women vs 120 men, P > 0.05): not statistically different
Median HI, fold higher in CYP2C19*1 homozygous than in CYP2C19*17 homozygous subjects (CYP2C19 [4]; *1*1 vs *17*17, P < 0.001): 2.17 fold
Median HI, fold higher in CYP2C19*1*17 than in CYP2C19*17*17 subjects (CYP2C19 [4]; *1*17 vs *17*17, P < 0.001): 1.97 fold
Mean HI ± SD (CYP2C19 [4]; genotype 1*1, Men (53)): 0.89 ± 0.30
Mean HI ± SD (CYP2C19 [4]; genotype 1*1, Women (22)): 0.78 ± 0.27
Mean HI ± SD (CYP2C19 [4]; genotype 1*2, Men (20)): 2.29 ± 1.19
Mean HI ± SD (CYP2C19 [4]; genotype 1*2, Women (13)): 2.24 ± 0.79
Mean HI ± SD (CYP2C19 [4]; genotype 1*17, Men (37)): 0.77 ± 0.32
Mean HI ± SD (CYP2C19 [4]; genotype 1*17, Women (15)): 0.72 ± 0.18
Mean HI ± SD (CYP2C19 [4]; genotype 2*2, Men (1)): 14.25
Mean HI ± SD (CYP2C19 [4]; genotype 2*2, Women (3)): 13.37 ± 3.80
Mean HI ± SD (CYP2C19 [4]; genotype 2*17, Men (2)): 2.05 ± 0.67
Mean HI ± SD (CYP2C19 [4]; genotype 2*17, Women (4)): 1.97 ± 0.62
Mean HI ± SD (CYP2C19 [4]; genotype 17*17, Men (5)): 0.36 ± 0.04
Mean HI ± SD (CYP2C19 [4]; genotype 17*17, Women (5)): 0.34 ± 0.08
Median hydroxylation index (CYP2C19 [4]; men (120)): 0.86
Median hydroxylation index (CYP2C19 [4]; women (60)): 0.84
Median hydroxylation index (HI) (CYP2C19 [5]; CYP2C19 *1*1, 3 h after 20 mg omeprazole orally): 0.78
Median hydroxylation index (HI) (CYP2C19 [5]; CYP2C19 *1*17, 3 h after 20 mg omeprazole orally): 0.71
Omeprazole plasma concentration, women compared with men ([1]; 60 women vs 120 men, P > 0.05): not statistically different
Mean omeprazole plasma concentration, fold higher in CYP2C19*2*2 than CYP2C19*1*1 ([1]; *2*2 vs *1*1, P < 0.001): 11 fold
Mean omeprazole plasma concentration, fold higher in CYP2C19*2*2 than CYP2C19*17*17 ([1]; *2*2 vs *17*17, P < 0.001): 19.0 fold
concentration at 3 h ([1]; both sexes, genotype 1*1, Total (75)): 125 ± 27.2 ng/mL
concentration at 3 h ([1]; both sexes, genotype 1*2, Total (33)): 319 ± 150 ng/mL
concentration at 3 h ([1]; both sexes, genotype 1*17, Total (52)): 118 ± 10.2 ng/mL
concentration at 3 h ([1]; both sexes, genotype 2*2, Total (4)): 1390 ± 123 ng/mL
concentration at 3 h ([1]; both sexes, genotype 2*17, Total (6)): 289 ± 97.5 ng/mL
concentration at 3 h ([1]; both sexes, genotype 17*17, Total (10)): 71 ± 10.3 ng/mL
concentration at 3 h ([1]; female, genotype 1*1, Women (22)): 128 ± 39.9 ng/mL
concentration at 3 h ([1]; female, genotype 1*2, Women (13)): 365 ± 265 ng/mL
concentration at 3 h ([1]; female, genotype 1*17, Women (15)): 120 ± 20.1 ng/mL
concentration at 3 h ([1]; female, genotype 2*2, Women (3)): 1360 ± 133 ng/mL
concentration at 3 h ([1]; female, genotype 2*17, Women (4)): 324 ± 39.9 ng/mL
concentration at 3 h ([1]; female, genotype 17*17, Women (5)): 68.3 ± 5.73 ng/mL
concentration at 3 h ([1]; male, genotype 1*1, Men (53)): 123 ± 20.8 ng/mL
concentration at 3 h ([1]; male, genotype 1*2, Men (20)): 290 ± 168 ng/mL
concentration at 3 h ([1]; male, genotype 1*17, Men (37)): 117 ± 16.1 ng/mL
concentration at 3 h ([1]; male, genotype 2*2, Men (1)): 1480 ng/mL
concentration at 3 h ([1]; male, genotype 2*17, Men (2)): 271 ± 119 ng/mL
concentration at 3 h ([1]; male, genotype 17*17, Men (5)): 73.7 ± 13.7 ng/mL
SMILES: COc1ccc2[nH]c([S+]([O-])Cc3ncc(C)c(OC)c3C)nc2c1 (stereo not shown) [omeprazole]
Successful treatment response ([2]; EM genotype): 43%
Successful treatment response ([2]; HetEM genotype): 95%
Antimode for HI of omeprazole (CYP2C19 [3]; Colombians): 0.63
Antimode for HI of omeprazole (CYP2C19 [3]; Indian): 14.4
Antimode for HI of omeprazole (CYP2C19 [3]; Koreans): 7.0
Mean HI, fold higher in CYP2C19*1*1 than CYP2C19*1*17 (CYP2C19 [3]; Ramsjö et al.): 1.1 fold
Mean HI, fold higher in CYP2C19*1*1 than CYP2C19*17*17 (CYP2C19 [3]; Ramsjö et al.): 3.2 fold
Median HI, fold higher in homozygous CYP2C19*1 than CYP2C19*1*17 carriers (CYP2C19 [3]; Sim et al.): 1.2 fold
Median HI, fold higher in homozygous CYP2C19*1 than homozygous CYP2C19*17 carriers (CYP2C19 [3]; Sim et al.): 2 fold
Antimode for HI of omeprazole (CYP2C19 [3]; Thai population): 7.0
Antimode for HI of omeprazole (CYP2C19 [3]; West Mexicans): 3.98
